Laboratory results: PubChem BioAssay (NCI)
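Grown in 96-well plates, cells were treated for 48 hours with each compound at five concentrations. Insufficient inhibition: endpoint recorded as highest concentration tested. Here, GI50 denotes the concentration required for 50% inhibition of growth. The concentration for full growth arrest is given as TGI.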

Experiments:
Assay in all cases: NCI anticancer screen, dose series, 48 h
K-562 leukemia = tested on: K-562 leukemia
A498 renal = tested on: A498 renal
OVCAR-5 ovarian = tested on: OVCAR-5 ovarian
HT29 colon = tested on: HT29 colon
UO-31 renal = tested on: UO-31 renal
RPMI-8226 leukemia = tested on: RPMI-8226 leukemia
SK-MEL-28 melanoma = tested on: SK-MEL-28 melanoma
SF-539 CNS = tested on: SF-539 CNS
T-47D breast = tested on: T-47D breast
NCI-H226 lung = tested on: NCI-H226 lung
MDA-MB-231 breast = tested on: MDA-MB-231 breast
M14 melanoma = tested on: M14 melanoma
MOLT-4 leukemia = tested on: MOLT-4 leukemia
HS 578T breast = tested on: HS 578T breast
MDA-MB-435 = tested on: MDA-MB-435
NCI/ADR-RES ovarian = tested on: NCI/ADR-RES ovarian
OVCAR-3 ovarian = tested on: OVCAR-3 ovarian
UACC-257 melanoma = tested on: UACC-257 melanoma
PC-3 prostate = tested on: PC-3 prostate
786-0 renal = tested on: 786-0 renal
HCT-15 colon = tested on: HCT-15 colon
SNB-75 CNS = tested on: SNB-75 CNS
HL-60(TB) leukemia = tested on: HL-60(TB) leukemia
SR leukemia = tested on: SR leukemia
COLO 205 colon = tested on: COLO 205 colon
ACHN renal = tested on: ACHN renal
MALME-3M melanoma = tested on: MALME-3M melanoma
CAKI-1 renal = tested on: CAKI-1 renal
SNB-19 CNS = tested on: SNB-19 CNS
TK-10 renal = tested on: TK-10 renal
SK-OV-3 ovarian = tested on: SK-OV-3 ovarian
SN12C renal = tested on: SN12C renal
UACC-62 melanoma = tested on: UACC-62 melanoma
IGROV1 ovarian = tested on: IGROV1 ovarian
CCRF-CEM leukemia = tested on: CCRF-CEM leukemia
SK-MEL-2 melanoma = tested on: SK-MEL-2 melanoma
OVCAR-4 ovarian = tested on: OVCAR-4 ovarian
NCI-H522 lung = tested on: NCI-H522 lung
U251 CNS = tested on: U251 CNS
HCT-116 colon = tested on: HCT-116 colon
DU-145 prostate = tested on: DU-145 prostate
SK-MEL-5 melanoma = tested on: SK-MEL-5 melanoma

**Q.** With `Cn1cc(-c2cc3nc(-c4c[nH]c5ccc(Cl)cc45)cc(N)n3n2)c2ccccc21` as the compound, how does the GI50 (K-562 leukemia) read?
**A.** Its GI50 is 2580 nM.

**Q.** And the TGI (K-562 leukemia)?
**A.** The TGI was 8070 nM.

**Q.** And the GI50 (A498 renal)?
**A.** The GI50 was 1600 nM.

**Q.** And the TGI (A498 renal)?
**A.** Its TGI is 3370 nM.

**Q.** And the GI50 (OVCAR-5 ovarian)?
**A.** Its GI50 is 1570 nM.

**Q.** And the TGI (OVCAR-5 ovarian)?
**A.** The TGI was 3040 nM.

**Q.** And the GI50 (HT29 colon)?
**A.** The GI50 was 1560 nM.

**Q.** And the TGI (HT29 colon)?
**A.** Its TGI is 2980 nM.

**Q.** And the GI50 (UO-31 renal)?
**A.** Its GI50 is 1430 nM.

**Q.** And the TGI (UO-31 renal)?
**A.** Its TGI is 2730 nM.

**Q.** What about the GI50 (RPMI-8226 leukemia) of the same compound?
**A.** Its GI50 is 2620 nM.

**Q.** What about the TGI (RPMI-8226 leukemia) of the same compound?
**A.** The TGI was 7210 nM.

**Q.** What about the GI50 (SK-MEL-28 melanoma) of the same compound?
**A.** Its GI50 is 1560 nM.

**Q.** What about the TGI (SK-MEL-28 melanoma) of the same compound?
**A.** The TGI was 2900 nM.

**Q.** What about the GI50 (SF-539 CNS) of the same compound?
**A.** Its GI50 is 1640 nM.

**Q.** And the TGI (SF-539 CNS)?
**A.** Its TGI is 3060 nM.

**Q.** And the GI50 (T-47D breast)?
**A.** The GI50 was 1840 nM.

**Q.** What about the TGI (T-47D breast) of the same compound?
**A.** The TGI was 4140 nM.

**Q.** And the GI50 (NCI-H226 lung)?
**A.** The GI50 was 1890 nM.

**Q.** And the TGI (NCI-H226 lung)?
**A.** Its TGI is 5170 nM.

**Q.** What about the GI50 (MDA-MB-231 breast) of the same compound?
**A.** The GI50 was 1790 nM.

**Q.** And the TGI (MDA-MB-231 breast)?
**A.** Its TGI is 3230 nM.

**Q.** What about the GI50 (M14 melanoma) of the same compound?
**A.** Its GI50 is 1680 nM.

**Q.** What about the TGI (M14 melanoma) of the same compound?
**A.** The TGI was 3140 nM.

**Q.** What about the GI50 (MOLT-4 leukemia) of the same compound?
**A.** The GI50 was 1620 nM.

**Q.** What about the TGI (MOLT-4 leukemia) of the same compound?
**A.** The TGI was 4180 nM.

**Q.** And the GI50 (HS 578T breast)?
**A.** The GI50 was 1910 nM.

**Q.** What about the TGI (HS 578T breast) of the same compound?
**A.** Its TGI is 4800 nM.

**Q.** What about the GI50 (MDA-MB-435) of the same compound?
**A.** Its GI50 is 1720 nM.

**Q.** What about the TGI (MDA-MB-435) of the same compound?
**A.** Its TGI is 3150 nM.

**Q.** What about the GI50 (NCI/ADR-RES ovarian) of the same compound?
**A.** The GI50 was 2110 nM.

**Q.** And the TGI (NCI/ADR-RES ovarian)?
**A.** Its TGI is 4730 nM.

**Q.** What about the GI50 (OVCAR-3 ovarian) of the same compound?
**A.** The GI50 was 2080 nM.

**Q.** What about the TGI (OVCAR-3 ovarian) of the same compound?
**A.** The TGI was 4390 nM.

**Q.** What about the GI50 (UACC-257 melanoma) of the same compound?
**A.** Its GI50 is 1690 nM.

**Q.** What about the TGI (UACC-257 melanoma) of the same compound?
**A.** Its TGI is 3230 nM.

**Q.** What about the GI50 (PC-3 prostate) of the same compound?
**A.** The GI50 was 1640 nM.

**Q.** And the TGI (PC-3 prostate)?
**A.** Its TGI is 3140 nM.

**Q.** What about the GI50 (786-0 renal) of the same compound?
**A.** The GI50 was 1450 nM.

**Q.** And the TGI (786-0 renal)?
**A.** The TGI was 2830 nM.

**Q.** And the GI50 (HCT-15 colon)?
**A.** The GI50 was 1470 nM.

**Q.** What about the TGI (HCT-15 colon) of the same compound?
**A.** The TGI was 2910 nM.

**Q.** What about the GI50 (SNB-75 CNS) of the same compound?
**A.** The GI50 was 1500 nM.

**Q.** What about the TGI (SNB-75 CNS) of the same compound?
**A.** The TGI was 3240 nM.

**Q.** What about the GI50 (HL-60(TB) leukemia) of the same compound?
**A.** Its GI50 is 2020 nM.

**Q.** What about the TGI (HL-60(TB) leukemia) of the same compound?
**A.** The TGI was 4750 nM.

**Q.** What about the GI50 (SR leukemia) of the same compound?
**A.** The GI50 was 1660 nM.

**Q.** And the TGI (SR leukemia)?
**A.** Its TGI is 5100 nM.

**Q.** What about the GI50 (COLO 205 colon) of the same compound?
**A.** Its GI50 is 1800 nM.

**Q.** What about the TGI (COLO 205 colon) of the same compound?
**A.** Its TGI is 3350 nM.

**Q.** And the GI50 (ACHN renal)?
**A.** The GI50 was 1540 nM.

**Q.** What about the TGI (ACHN renal) of the same compound?
**A.** Its TGI is 2870 nM.

**Q.** What about the GI50 (MALME-3M melanoma) of the same compound?
**A.** The GI50 was 1610 nM.

**Q.** What about the TGI (MALME-3M melanoma) of the same compound?
**A.** Its TGI is 2970 nM.

**Q.** And the GI50 (CAKI-1 renal)?
**A.** The GI50 was 1450 nM.

**Q.** And the TGI (CAKI-1 renal)?
**A.** Its TGI is 2910 nM.

**Q.** What about the GI50 (SNB-19 CNS) of the same compound?
**A.** The GI50 was 1680 nM.

**Q.** What about the TGI (SNB-19 CNS) of the same compound?
**A.** The TGI was 3150 nM.

**Q.** And the GI50 (TK-10 renal)?
**A.** Its GI50 is 1260 nM.

**Q.** And the TGI (TK-10 renal)?
**A.** Its TGI is 2580 nM.

**Q.** And the GI50 (SK-OV-3 ovarian)?
**A.** The GI50 was 1910 nM.

**Q.** What about the TGI (SK-OV-3 ovarian) of the same compound?
**A.** Its TGI is 3880 nM.

**Q.** And the GI50 (SN12C renal)?
**A.** Its GI50 is 1710 nM.

**Q.** And the TGI (SN12C renal)?
**A.** Its TGI is 3170 nM.

**Q.** What about the GI50 (UACC-62 melanoma) of the same compound?
**A.** The GI50 was 1630 nM.

**Q.** And the TGI (UACC-62 melanoma)?
**A.** The TGI was 3060 nM.

**Q.** What about the GI50 (IGROV1 ovarian) of the same compound?
**A.** Its GI50 is 1570 nM.

**Q.** And the TGI (IGROV1 ovarian)?
**A.** Its TGI is 3130 nM.

**Q.** And the GI50 (CCRF-CEM leukemia)?
**A.** The GI50 was 3120 nM.

**Q.** And the TGI (CCRF-CEM leukemia)?
**A.** The TGI was 11200 nM.

**Q.** What about the GI50 (SK-MEL-2 melanoma) of the same compound?
**A.** The GI50 was 1810 nM.

**Q.** What about the TGI (SK-MEL-2 melanoma) of the same compound?
**A.** Its TGI is 3540 nM.

**Q.** What about the GI50 (OVCAR-4 ovarian) of the same compound?
**A.** The GI50 was 1910 nM.

**Q.** And the TGI (OVCAR-4 ovarian)?
**A.** The TGI was 4150 nM.

**Q.** What about the GI50 (NCI-H522 lung) of the same compound?
**A.** The GI50 was 1600 nM.

**Q.** What about the TGI (NCI-H522 lung) of the same compound?
**A.** The TGI was 3230 nM.

**Q.** And the GI50 (U251 CNS)?
**A.** The GI50 was 1700 nM.

**Q.** And the TGI (U251 CNS)?
**A.** Its TGI is 3290 nM.

**Q.** What about the GI50 (HCT-116 colon) of the same compound?
**A.** Its GI50 is 1620 nM.

**Q.** And the TGI (HCT-116 colon)?
**A.** Its TGI is 2980 nM.

**Q.** What about the GI50 (DU-145 prostate) of the same compound?
**A.** Its GI50 is 1840 nM.

**Q.** What about the TGI (DU-145 prostate) of the same compound?
**A.** The TGI was 3320 nM.

**Q.** What about the GI50 (SK-MEL-5 melanoma) of the same compound?
**A.** The GI50 was 1670 nM.

**Q.** What about the TGI (SK-MEL-5 melanoma) of the same compound?
**A.** The TGI was 3100 nM.
